Data as given in patent publication US5861387A, “Controlled release systems and low dose androgens” (Endorecherche Inc., priority 1995, dated 1999).

How the values were obtained:
[1] = system: human breast cancer ZR-75-1 cells, androgen receptor; test: Androgenic (androgen receptor) activity in ZR-75-1 cells: cell growth and GCDFP-15/GCDFP-24 secretion; type: cell-based; settings: for androgenic activity: ZR-75-1 cells, low concentrations
Description: Maintenance of stock cultures The ZR-75-1 human breast cancer cell line can be obtained from the American Type Culture Collection (Rockville, Md.). The cells are routinely cultured in phenol red-free RPMI 1640 medium supplemented with 10 nM E2, 15 mM Hepes, 2 mM L-glutamine, 1 mM sodium pyruvate, 100 IU penicillin per ml, 100 μg streptomycin sulfate per ml, and 10% (v/v) fetal bovine serum (FBS), in a water-saturated atmosphere of 95% air: 5% CO2 at 37° C.
Stock cultures in their logarithmic growth phase are harvested with 0.05% trypsin/0.02% EDTA (w/v) in Hanks' balanced salts solution and resuspended in E2- and phenol red-free RPMI 1640 medium containing 5% (v/v) dextran-coated charcoal (DCC)-treated FBS and 500 ng of bovine insulin per ml, but otherwise supplemented as described above for maintenance of stock cultures. Cells were plated in 24-well Linbro culture plates (Flow Laboratories) at a final density of 0.5-4.0×10^4 cells/well.
Fourty-eight hours after plating, fresh SD medium containing the appropriate concentrations of steroids are added. […] The incubation media are replaced every other day and cells are harvested by trypsinization after 12 days of treatment, unless otherwise indicated. Cell number can be determined with a Coulter Counter.
Calculations and statistical analyses Apparent IC50 values are calculated using an iterative least squares regression (Rodbard, Endocrinology 94:1427-1437,1974), while apparent inhibition constants (Ki values) are calculated according to Cheng and Prusoff (Biochem. Pharmacol. 22: 3099-3108,1973).
In addition to inhibition of cell growth, the secretion of two glycoproteins, namely gross cystic disease fluid protein-15 (GCDFP-15) and GCDFP-24 is markedly stimulated by androgens (Simard et al., Mol. Endocrinol. 3: 694-702, 1989; Simard et al., Endocrinology 126: 3223-3231, 1990).
To assist in determining the activity of the potential compounds on the various steroid receptors, androgen, glucocorticoid, progesterone and estrogen-receptor-mediated activities of synthetic progestins and anabolic steroids can be measured in ZR-75-1 human breast cancer cells using cell growth as well as GCDFP-15 and GCDFP-24 release as parameters of response (Poulin and Labrie, Cancer Res. 46: 4933-4937, 1986; Poulin et al., Breast Cancer Res. Treatm. 12: 213-225, 1988; Poulin et al., Breast Cancer Res. Treatm. 13: 161-172, 1989; Poulin et al., Breast Cancer Res. Treatm. 13: 265-276, 1989; Simard et al., Mol. Endocrinol. 3: 694-702, 1989; Simard et al., Endocrinology 126: 3223-3231, 1990).
In order to analyze the interactions of synthetic progestins or anabolic steroids with the androgen receptor (AR) and glucocorticoid receptor (GR) in their inhibitory action on cell growth, one takes advantage of the additivity of the anti-proliferative effects of androgens and glucocorticoids in this cell line (Poulin et al., Breast Cancer Res. Treatm. 12: 213-225, 1988; Hatton and Labrie, F., unpublished data). […] On the other hand, the effect of a putative androgen can similarly be measured following saturation of GR by dexamethasone (DEX). […] Thus, in the presence of excess androgen (1 μM DMT) in the presence of E2 and insulin, glucocorticoid effects can be assessed with precision and with no interference by the other receptors. The same applies to study of the role of AR when the cells are incubated in the presence of excess glucocorticoid (3 μM DEX), in the presence of E2 and insulin.

breast cancer [2] = settings: in vivo; cited from earlier work
breast cancer [3] = settings: cited from earlier work
bone = settings: cited from earlier work
[4] = system: DMBA-induced mammary carcinoma; settings: cited from earlier work
antibody 144A = test: MPA radioimmunoassay, specificity of antibody 144A; type: binding, rabbit
Text: Antibody 144A was raised in rabbits against 17-hydroxyprogesterone-3-0-carboxymethyloxime-BSA. The labeled steroid used in the radioimmunoassay (RIA) was methyl-17α-hydroxyprogesterone acetate, 6α-[1,2-^3 H(N)]- obtained from NEN (CAT NO: NET 480) while the reference preparation was medroxyprogesterone acetate (MPA) obtained from Steraloids. The assay buffer used was 0.1% gelatin in 0.1M sodium phosphate, 0.15M sodium chloride, 0.1% sodium azide, pH 7.2. The extraction solvent mixture was ethyl ether-acetone (9:1, v:v) [EEA] while the LH-20 chromatography solvent mixture was iso-octane: toluene: methanol (90:5:5;v:v:v) [IOTH].
One ml of plasma was extracted twice with 5 ml of EEA. The extracts were evaporated to dryness with nitrogen and the remaining residue was dissolved in one ml of IOTH. The extracts were then subjected to LH-20 chromatography on […] columns (Coming CAT NO: 05 722A) filled with 2 g of LH-20 (Pharmacia). The gel was washed with 30 ml of IOTH before addition of one ml of sample and elution with IOTH. The first 6 ml were discarded. The following 10, 16.5 and 27.5 ml of eluent were fraction I (progesterone), II (MPA) and III (17-LH-progesterone), respectively. Fraction II was evaporated to dryness and reconstituted in 1.5 ml of assay buffer.
To each 12 x 75 mm borosilicate test tube was added: 0.2 ml containing 25,000 DPM of tritiated steroid, 0.5 ml of reference preparation ranging from 5 to 5000 pg/tube or 0.5 ml of extracted sample fraction II, 0.2 ml of antiserum 144A diluted 1/5000 or 0.2 ml of assay buffer to account for non specific binding. The tubes were then incubated overnight at 4° C. Then, 0.2 ml 2% charcoal Norit-A, 0.2% Dextran T-70 diluted in water was added. The tubes were then shaken gently and, after 10 min, they were centrifuged at 2000 x g for 10 min. The supernatant was mixed with 8 ml of Formula-989 (NEN: NEF-989) and the radioactivity was counted in a β-counter.

masculinizing activity = settings: low blood concentrations; cited from earlier work
breast cancer [5] = settings: cited from earlier work; remark: listed apart in the source
[6] = E2-treated ovariectomized rats, with or without DHT

## C[C@]12C/C(=C/O)C(=O)C[C@@H]1CC[C@@H]1[C@@H]2CC[C@@]2(C)[C@H]1CC[C@]2(C)O [oxymetholone]
[1]
  androgenic activity: possess androgenic activity at low concentrations

## CCC(=O)O[C@H]1CC[C@H]2[C@@H]3CCC4=CC(=O)CC[C@]4(C)[C@H]3CC[C@]12C [testosterone propionate]
Breast cancer [2]
  effect in pre- and post-menopausal women: beneficial effects in both pre- and post-menopausal women
  objective remissions in breast cancer: effective in producing objective remissions
  remission rate and duration, quality of life and survival: improved remission rate and duration, quality of life and survival

## CC/C(=C(\c1ccccc1)c1ccc(OCCN(C)C)cc1)c1ccccc1 [Tamoxifen]
Breast cancer [3]; in vivo
  median time from onset of therapy to treatment failure: 64 days
  non-responders: 50%
  partial response (PR): 15%
Breast cancer [3]; tendency for improved survival
  survival: 330 days

## CC(=O)O[C@]1(C(C)=O)CC[C@H]2[C@@H]3C=C(Cl)C4=CC(=O)CC[C@]4(C)[C@H]3CC[C@@]21C [chlormadinone acetate]
[1]
  androgenic activity: possess androgenic activity at low concentrations

## C[C@]12C=CC(=O)C=C1CC[C@@H]1[C@@H]2CC[C@@]2(C)[C@H]1CC[C@]2(C)O [methandrostanolone]
[1]
  androgenic activity: possess androgenic activity at low concentrations
bone; 24-26 months, double-blind
  effect on postmenopausal osteoporosis (total body calcium): positive and relatively long-term

## C[C@]12CC[C@@H]3c4ccc(O)cc4CC[C@H]3[C@@H]1CC[C@@H]2O [E2, 17β-estradiol]
[4]; 28-day observation period, E2-treated animals, with or without DHT
  number of new tumors per rat: 1.5±0.3 per rat
[4]; [6]
  complete responses (disappearance of palpable tumors): 11.5%
  progressing tumors: 69.2%
Antibody 144A
  cross-reactivity with antibody 144A: less than 0.1%

## C[C@]12Cc3c[nH]nc3C[C@@H]1CC[C@@H]1[C@@H]2CC[C@@]2(C)[C@H]1CC[C@]2(C)O [stanozolol]
[1]
  androgenic activity: possess androgenic activity at low concentrations
bone; in vivo
  bone mass: increase in total bone mass
bone; randomized study in postmenopausal women
  side effects: side effects were recorded in the majority of patients

## C[C@H](O)[C@H]1CC[C@H]2[C@@H]3CCC4=CC(=O)CC[C@]4(C)[C@H]3CC[C@]12C [20α-OH-Prog]
Antibody 144A
  cross-reactivity with antibody 144A: less than 0.1%

## C#C[C@]1(O)CC[C@H]2[C@@H]3CCC4=Cc5oncc5C[C@]4(C)[C@H]3CC[C@@]21C [danazol]
[1]
  androgenic activity: possess androgenic activity at low concentrations

## CC(C)C(=O)Nc1ccc([N+](=O)[O-])c(C(F)(F)F)c1 [Flutamide]
[4]; simultaneous treatment with DHT
  effect on DHT action: completely prevented DHT action

## C[C@]12CCC(=O)C[C@@H]1CC[C@@H]1[C@@H]2CC[C@]2(C)[C@@H](O)CC[C@@H]12 [DHT, 5α-dihydrotestosterone]
Masculinizing activity
  masculinizing activity: considerable masculinizing activity even at low blood concentrations
[1]; detailed kinetic studies, ZR-75-1
  concentration exerting maximal inhibitory effect on the AR: 1 µM

## C[C@@H]1C[C@@]2(C)[C@@H](CC[C@@H]3[C@@H]2CC[C@]2(C)[C@@H](O)CC[C@@H]32)CC1=O [dromostanolone]
[1]
  androgenic activity: possess androgenic activity at low concentrations

## CC/C(=C(/CC)c1ccc(O)cc1)c1ccc(O)cc1 [DES]
Breast cancer [2]
  objective remissions in breast cancer: effective in producing objective remissions

## C[C@]12CCC(=O)C=C1CC[C@@H]1[C@@H]2[C@@H](O)C[C@@]2(C)[C@H]1CC[C@]2(O)C(=O)CO [cortisol]
Antibody 144A
  cross-reactivity with antibody 144A: less than 0.1%

## CCCCCCC(=O)O[C@H]1CC[C@H]2[C@@H]3CC[C@H]4CC(=O)C=C(C)[C@]4(C)[C@H]3CC[C@]12C [methonolone enanthate]
Breast cancer [5]; 13 of 27 patients
  response rate: 48%
Breast cancer [5]; non-responder group
  median duration of survival, non-responders: 7.5 months
Breast cancer [5]; responders
  median duration of survival, responders: 27 months

## C[C@]12CC[C@@H]3c4ccc(O)cc4CC[C@H]3[C@@H]1CCC2=O [estrone]
Antibody 144A
  cross-reactivity with antibody 144A: less than 0.1%

## C[C@]12COC(=O)C[C@@H]1CC[C@@H]1[C@@H]2CC[C@@]2(C)[C@H]1CC[C@]2(C)O [oxandrolone]
[1]
  androgenic activity: possess androgenic activity at low concentrations

## C#C[C@]1(O)CC[C@H]2[C@@H]3CCC4=CC(=O)CC[C@]4(C)[C@H]3CC[C@@]21C [ethisterone]
[1]
  androgenic activity: possess androgenic activity at low concentrations

## CC(=O)[C@@]1(O)CC[C@H]2[C@@H]3CC=C4C[C@@H](O)CC[C@]4(C)[C@H]3CC[C@@]21C [17-OH-pregnenolone]
Antibody 144A
  cross-reactivity with antibody 144A: less than 0.1%

## C[C@]12CC[C@@H](O)C[C@@H]1CC[C@@H]1[C@@H]2CC[C@]2(C)[C@@H](O)CC[C@@H]12 [3α-diol]
Antibody 144A
  cross-reactivity with antibody 144A: less than 0.1%

## C[C@H]1CC2=CC(=O)CC[C@]2(C)[C@H]2CC[C@@]3(C)[C@@H](CC[C@]3(C)O)[C@H]12 [calusterone, 7β,17α-dimethyltestosterone]
[1]
  androgenic activity: possess androgenic activity at low concentrations

## C[C@]12CC[C@H]3[C@@H](CCC4=CC(=O)CC[C@@H]43)[C@@H]1CC[C@@H]2O [Nor-testosterone]
[1]
  androgenic activity: possess androgenic activity at low concentrations

## Vitamin D
bone; in vivo
  bone resorption, osteoporotic women: only reduced bone resorption

## CC(=O)[C@H]1CC[C@H]2[C@@H]3CCC4=CC(=O)CC[C@]4(C)[C@H]3CC[C@]12C [progesterone]
Antibody 144A
  cross-reactivity with antibody 144A: less than 0.1%

## CC(=O)[C@H]1CC[C@H]2[C@@H]3CC=C4C[C@@H](O)CC[C@]4(C)[C@H]3CC[C@]12C [pregnenolone]
Antibody 144A
  cross-reactivity with antibody 144A: less than 0.1%

## C[C@]12CCC(=O)C=C1CC[C@@H]1[C@@H]2CC[C@]2(C)C(=O)CC[C@@H]12 [androstenedione]
Antibody 144A
  cross-reactivity with antibody 144A: less than 0.1%
